Earlier results on 5 compounds are cited in US20250275935A1, “COMPOSITIONS AND METHODS FOR TREATING PATIENTS WITH DEMENTIA DUE TO ALZHEIMER'S DISEASE WITH A COMBINATION OF THC AND MELATONIN” (IGC Pharma IP, LLC, priority 2021, published 2025).

For series [1] the following is noted: general statement, no test described.
A further series relates to mice. Particulars: THC 3 mg/kg bodyweight per day, four weeks.
For series [2] the following is noted: 4.5 mg/day THC.
Series [3] concerns patient having severe Alzheimer's disease. Conditions: 4.9-6.7 mg dronabinol with 10 mg donepezil and 50 mg sertraline daily; decreased from 20.

On to `COc1ccc2[nH]cc(CCNC(C)=O)c2c1` [Melatonin, N-acetyl-5-methoxytryptamine], for which the solubility in water entry in series [1] is “typically insoluble in water”. Turning to `CCCCCc1cc(O)c2c(c1)OC(C)(C)[C@@H]1CCC(C)=C[C@@H]21` [THC, Tetrahydrocannabinol], the “cognitive performance (learning and memory)” value in the series with mice (mature (12 months) and old (18 months) mice) was “cognitive deficits in learning and memory were erased”. For the same compound, the cognitive performance result in the series with mice (young mice (2 month)) was “performed worse than the control group of young mice”. For the same compound, the “agitation or reduction from baseline of NPI total score versus placebo” value in series [2] is recorded as “No differences were shown”. As for `COc1cc(/C=C/C(=O)CC(=O)/C=C/c2ccc(O)c(OC)c2)ccc1O` [curcumin], the solubility in water entry in series [1] is “only poorly soluble in water”. Regarding `CCCCCc1cc(O)c2c(c1)OC(C)(C)[C@@H]1CCC(C)=C[C@@H]21` [dronabinol], the NPI total score in series [3] is recorded as 15. Turning to `C[C@@H]1O[C@@H](OC[C@H]2O[C@@H](Oc3c(-c4ccc(O)c(O)c4)oc4cc(O)cc(O)c4c3=O)[C@H](O)[C@@H](O)[C@@H]2O)[C@H](O)[C@H](O)[C@H]1O` [rutin], in series [1], the solubility in water entry is on record as “only poorly soluble in water”.
